# Experimental data taken from patent US7365080B2, “Pharmaceutical compositions comprising thieno[2,3-c]pyridine derivatives and use thereof” (Rimonyx Pharmaceuticals Ltd., priority 2003, dated 2008).
# What was measured:
# L-Selectin = biological target: T1, L-Selectin (Homo sapiens, UniProt P14151); assay: ELISA: inhibition of L-selectin/IgG binding to immobilized heparin (Heparin-BSA); conditions: L-Selectin binding to heparin
# T1 construct: purchased Research and Development Systems 728-LS
# T1 sequence (P14151 39-332 limits assumed): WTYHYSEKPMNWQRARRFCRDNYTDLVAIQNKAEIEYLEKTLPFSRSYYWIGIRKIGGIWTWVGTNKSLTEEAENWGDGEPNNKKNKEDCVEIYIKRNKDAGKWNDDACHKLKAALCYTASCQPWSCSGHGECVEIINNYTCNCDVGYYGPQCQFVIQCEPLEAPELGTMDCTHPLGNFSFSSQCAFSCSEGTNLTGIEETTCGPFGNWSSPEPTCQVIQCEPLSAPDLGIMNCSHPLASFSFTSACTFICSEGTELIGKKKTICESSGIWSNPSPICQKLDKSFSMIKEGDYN
# Description: The inhibitory effect of the compounds of the present invention can be evaluated by several methods in vitro. One assay for measuring GAG-ECAM binding, exemplified herein below, detects the binding of L selectin/IgG to immobilized heparin. Another assay utilizes immobilized L-selectin, or L-selectin fused to protein domains other than IgG. The amount of bound L-selectin is determined by an ELISA assay using, for example, a monoclonal antibody raised against L-selectin, which is conjugated to horseradish peroxidase. […] The Dregg-55 antibody was also shown to inhibit L-selectin-dependent adhesion in vitro, neutrophil accumulation in vitro and inflammation in vivo (Co M. S. et al, Immunotechnology 493: 253-266, 1999).
# An in vitro assay was used to assess the ability of test compounds according to formula I to inhibit the interactions of L-selectin with HS-GAGs. The assay was suitable for determining the concentration required for 50% inhibition (IC-50) for each specific compound. In the assay, the GAG used was heparin. Thus, porcine intestinal mucosa heparin conjugated to Bovine Serum Albumin (Heparin-BSA; Sigma Cat. No. H0403) at […] in Phosphate Buffered Saline (PBS; pH 6.5) was added to a 96 well polystyrene ELISA plate (NUNC Cat. No. 442404; 0.1 ml per well) and incubated Over Night (ON) at 4° C. Following the incubation, the plate was washed thoroughly, by immersion, with de-ionized water and PBS (pH 6.5). The ELISA plate was then blocked with BSA (ICN Cat. No.160069, 3%, 200 μl per well) for 1 hour at Room Temperature (RT). Following blocking, the plate was washed with de-ionized water, and then with PBS (pH 6.5) containing Tween 20 (Sigma Cat. No. P-1379, 0.05%). Compounds were synthesized or purchased from ChemDiv Labs (San Diego, Calif.), dissolved in DMSO, diluted in PBS and added to the wells at various concentrations in the range of 0.01 to 300 μM. Recombinant Human L-Selectin/IgG (Research and Development Systems Cat. No.728-LS) dissolved in PBS supplemented with BSA (0.1%) and calcium chloride (1 mM) was added to the ELISA plate (100 μl per well) and incubated for 60 minutes at RT with shaking. Following incubation, the plate was washed with de-ionized water and three times with PBS (pH 6.5) containing Tween 20. Anti-Human IgG Peroxidase Conjugate (1:5000; Sigma Product No. A8667) diluted in PBS supplemented with BSA (0.1%) and calcium chloride (1 mM) was added to the ELISA plate (100 μl per well) and incubated for 30 minutes at RT with shaking. The plate was then washed with de-ionized water and three times with PBS (pH 6.5) containing Tween 20. The peroxidase substrate cromogen, TMB (Dako Cat. No. S1599) was added (100 μl per well) to the ELISA plate and incubated at room temperature. After 15 minutes ELISA Stop Solution (hydrochloric acid 1N, sulfuric acid 3N) was added (200 μl per well) to stop the peroxidase catalyzed colorimetric reaction. The Optical Density (OD) of the samples was measured at 450 nm using an ELISA plate reader (Dynatech MR5000). Data were analyzed with Graphpad Prism software and IC-50 values were established. The P-selectin assay was carried out in a similar fashion, except that Recombinant Human P-Selectin/IgG (Research and Development Systems Cat.No.137-PS) was used.
# Lewis rats = assay: Experimental Autoimmune Encephalomyelitis (MBP p87-99); type: in vivo, rat; conditions: intra-peritoneal once daily for 3 days, 10 and 35 mg/kg
# Excerpt: In autoimmune conditions, T cells reactive to self-antigens escape elimination in the thymus and are activated in the periphery, where they can provoke damage in specific organs. EAE, a model of autoimmune disease that is induced in Lewis rats, bears many similarities to the human disease Multiple Sclerosis (MS). T cells found in brain lesions of MS patients have TCR junctional rearrangements that are identical to T cells found in the spinal cords of Lewis rats immunized with a peptide of myelin basic protein MBP p87-99. In addition, a major T and B cell response in MS patients is directed to MBP p87-99.
# EAE is induced in rats by immunization with MBP p87-99. The inhibitor Compounds are administered once daily by intra-peritoneal injection for 3 consecutive days starting 1 day before the appearance of EAE symptoms (day 12 after EAE induction). The degree of clinical disease is scored as follows: 0=no signs; 1=loss of tail tonicity; 2=paralysis of hind limbs; 3=paralysis of all four limbs 4=quadriplegic animal in a moribund state.
# [1] = system: Human T-lymphocytes on human endothelial cells; assay: T-lymphocyte rolling on endothelial cells under shear flow; type: cell-based; conditions: for inhibition at 25 µM: Homo sapiens, high shear flow, read-out: inhibition of cell rolling; for % rolling: test compound (25 μM), shear flow
# Description: Human T-lymphocytes were passed over a layer of human endothelial cells according to the method of Lawrence and Springer (Cell 65: 859-873, 1991). At high shear flow, migrating T-lymphocytes adhered transiently and intermittently to the endothelial cells as a consequence of HS-GAG-ECAM interaction. The resulting T-cell rolling was recorded by video camera and the number of rolling cells per defined area during a constant period of time was determined. Soluble heparin (competitor of cell surface GAGs) abolished T-cell rolling under high shear flow conditions. Compounds no. 1, 11 and 25, each at 25 μM, inhibited cell rolling by 90, 90 and 70%, respectively.
# BALB/c mice = assay: Thioglycollate-induced leukocyte and neutrophil infiltration into mouse peritoneum; type: in vivo; conditions: intraperitoneal, 1 hour before thioglycollate; 3 hours
# Description: The ability of compounds of the present invention to reduce leukocyte migration to sites of acute inflammation was evaluated in BALB/c mice using a thioglycolate-induced model of peritonitis. In this animal model, interactions of L- and P-selectin with HS-GAGs have been implicated in neutrophil infiltration (Nelson, R. M., 82:3253-3258, 1993; Xie, X. et al., J. Biol. Chem., 275:34818-34825, 2000).
# BALB/c mice (6 weeks old, ˜20 g in weight, 15 mice/group) received intraperitoneal injection of an inhibitor compound in 0.2 ml DMSO/Tween/sterile saline 1 hour before administration of thioglycollate (Sigma). Control groups received vehicle and sham controls received no thioglycollate. Mice were injected intraperitoneally with 1 ml of 3% thioglycollate broth (Xie, X. et al., J. Biol. Chem., 275, 34818-34825, 2000). Mice were sacrificed after 3 hours, and the peritoneal cavities were ravaged with […] of ice-cold saline containing 2 mM EDTA to prevent clotting. After red blood cell lysis, leukocytes were counted in a hemocytometer. Neutrophils were counted after staining with Türck. Data was expressed as mean±SEM, and statistical analysis was performed by Student t test. A value of P<0.05 was taken to denote statistical significance.
# Mice = assay: TNBS induced colitis (Inflammatory Bowel Disease model); type: in vivo, mouse
# Description: Control mice (12 per group) were injected intraperitoneally (IP) with Test Compound (TC) Vehicle (Tween 80, 5%, 200 μl). […] The control and experimental mice were injected once per day for 7 successive days. […] 11 in the same experimental model. The compound was administered once a day for 7 days in a suspension with 0.5% methylcellulose per os. There were 12 mice per group and the control mice received 0.5% methylcellulose only. Compound no.
# [2] = system: immobilized heparin / L-selectin/IgG; assay: Assay 1: direct interaction with heparin, pre-incubation versus co-incubation with L-selectin; type: binding; conditions: compound 0.1-200 μM, 90 min, washed before L-selectin/IgG
# Description: Inhibitor Compounds at final concentration 0.1-200 μM were incubated in the ELISA plate for 90 min, and then washed with incubation buffer. After washing, L-selectin/IgG was added to the wells pre-incubated with compounds. At the same time, in separate control wells, L-selectin was co-incubated with inhibitor Compounds for 90 min. Following the incubation, L-selectin bound to the plate was quantified by antibody conjugated to Horse Radish Peroxidase and OD measurement as performed as described in Example 5.
# SF-268 (glioma) = assay: Inhibition of growth of cancer cell lines (alamar blue); type: cell-based; conditions: Homo sapiens, 48 hours
# Description: (§1) Each cell line (MCF7 (Breast carcinoma), NCI-H460 (Non-small cell lung carcinoma), and SF-268 (glioma) was pre-incubated on a microtiter plate. Inhibitor compounds were then added at a concentration of 0.1 μM and the culture incubated for 48 hours. End-point determinations were made with alamar blue (Gray G D, Wickstrom E, Biotechniques 21(5) 780-782, 1996). Results for each compound are presented as the percent of growth of the treated cells as compared to the untreated cells. Compounds, which reduce the growth of any one of the cell lines to approximately 32% or less were considered suitable for further and more extensive study (Monks A et al, J. Natl. Cancer Inst., 83:757-766, 1991. Compound no. 1 inhibited the growth of the cell lines MCF7, NCI-H460, and SF-268 by 99%, 100% and 99%, respectively.
# MCF7 (Breast carcinoma) = assay: as above; type: cell-based; conditions: Homo sapiens, 48 hours
# Description: as §1
# [3] = system: NCI-H460 (Non-small cell lung carcinoma); assay: as above; type: cell-based; conditions: Homo sapiens, 48 hours
# Description: as §1
# [4] = system: RPMI-8226, MOLT-4, CCR-CEM, K562, SR; assay: Leukemia cell lines (SRB): cell death; type: cell-based; conditions: 48 hours
# Description: (§2) Each cell line (RPMI-8226 (Multiple Myeloma), MOLT-4 (Acute lymphoblastic leukemia), CCR-CEM (Human T Cell leukemia), K562 (Chronic myeloid leukemia), SR (Chronic myeloid leukemia) was pre-incubated on a microtiter plate (Monks A et al, J. Natl. Cancer Inst., 83:757-766, 1991). Inhibitor compounds were then added at different concentrations (10^−8-10^−4 Molar) and the culture incubated for 48 hours. A sulforhodamine B (SRB) protein assay was used to estimate cell viability or growth (Skehan P et al, J. Natl. Cancer Inst., 82:1107-1112, 1990). Compound no. 1 inhibited the growth of the cell lines RPMI-8226, MOLT4, CCR-CEM, K562 and SR to 100%, 100%, 100%, 100% and 93%, respectively. There was negligible cell death (less than 15%).
# [5] = system: SR (Chronic myeloid leukemia); assay: Inhibition of leukemia cell growth (SRB); type: cell-based; conditions: 10^−8-10^−4 Molar, 48 hours
# Description: as §2
# [6] = system: CCR-CEM (Human T Cell leukemia); assay: Inhibition of leukemia cell growth (SRB); type: cell-based; conditions: 10^−8-10^−4 Molar, 48 hours
# Description: as §2
# [7] = system: MOLT-4 (Acute lymphoblastic leukemia); assay: Inhibition of leukemia cell growth (SRB); type: cell-based; conditions: MOLT4; 10^−8-10^−4 Molar, 48 hours
# Description: as §2
# [8] = system: K562 (Chronic myeloid leukemia); assay: Inhibition of leukemia cell growth (SRB); type: cell-based; conditions: 10^−8-10^−4 Molar, 48 hours
# Description: as §2
# [9] = system: RPMI-8226 (Multiple Myeloma); assay: Inhibition of leukemia cell growth (SRB); type: cell-based; conditions: 10^−8-10^−4 Molar, 48 hours
# Description: as §2
Compound,IC50 (L-Selectin),clinical signs of EAE (in words) (Lewis rats),inhibition at 25 µM [1],% rolling [1],leukocyte migration into the peritoneal cavity (in words) (BALB/c mice),"colonic damage (score 0 to 10), in words (Mice; IP once per day for 7 days, 10 and 35 mg/kg)","colonic damage (score 0 to 10), in words (Mice; per os once a day for 7 days, 3, 50 and 100 mg/kg)","level of inhibition of L-selectin binding to heparin, pre-incubation versus co-incubation [2]",inhibition at 0.1 µM (SF-268 (glioma)),inhibition at 0.1 µM (MCF7 (Breast carcinoma)),inhibition at 0.1 µM [3],cell death [4],growth inhibited to [5],growth inhibited to [6],growth inhibited to [7],growth inhibited to [8],growth inhibited to [9]
"CCN1CCc2c(sc(NC(=O)c3ccc(S(=O)(=O)N(CC)CC)cc3)c2-c2nc3ccccc3s2)C1 [Compound 11, 2-[[4-[(diethylamino)sulfonyl]benzoyl]amino]-3-(benzothiazol-2-yl)-6-ethyl-4,5,6,7-tetrahydrothieno[2,3-c]pyridine]",0.35 µM,significantly inhibited,90%,<10%,inhibited efficiently,significantly inhibited,significantly inhibited,same level of inhibition,–,–,–,–,–,–,–,–,–
"CC(C)N1CCc2c(sc(NC(=O)c3ccc(S(=O)(=O)N4CCc5ccccc5C4)cc3)c2C(N)=O)C1 [Compound 1, 2-[[(4-(3,4-dihydro-2(1H)-isoquinolinyl)sulfonyl]benzoyl]amino]-6-(1-methylethyl)-4,5,6,7-tetrahydrothieno[2,3-c]pyridine-3-carboxamide]",13 µM,–,90%,30%,–,–,–,–,99%,99%,100%,less than 15%,93%,100%,100%,100%,100%
